{"source": "patent US20220062218A1", "about": "“COMPOSITIONS AND METHODS FOR TREATING DIABETES” (ENZYCHEM LIFESCIENCES, priority 2019, published 2022)", "assay_type_in_all_cases": "cell-based, rat", "key": {"[1]": {"test_system": "apoptosis-related proteins BCL-2, BAX, cytochrome c, caspase-3", "assay": "Expression of apoptosis-related proteins (BCL-2, BAX, cytochrome c, caspase-3) by western blotting in STZ-treated cells", "method": "(§1) In addition, to perform a special protein detection test (Western Blotting), cells were lysed by RIPA buffer (LPS Solution, Daejeon, Korea) supplemented with protease and phosphatase inhibitors (Thermo Scientific, Waltham, Mass., USA). Proteins were separated on 12% sodium dodecyl sulfate-polyacrylamide gels and transferred to polyvinylidene difluoride membranes (EMD Millipore, Darmstadt, Germany). The membranes were blocked with 5% BSA for 1 h and incubated with primary antibodies to GLUT2 (bs-0351r, Bioss, Woburn, Mass., USA), RAC1 (03589, EMD Millipore), BAX (B51030, Bioworld Tech, St. Louis Park, Minn., USA), BCL-2 (B51031, Bioworld), Cytochrome c (#4272, Cell Signaling Technology, Danvers, Mass., USA), Caspase-3 (#9662, Cell Signaling Technology), and Na+-K+ ATPase (#3010S, Cell Signaling Technology). After three washes in PBST, membranes were incubated with HRP-conjugated secondary antibodies (Enzo Life Sciences, dilution 1:5,000) for 1 h at room temperature. Protein bands were detected using ECL reagent (Thermo Scientific) and then visualized on films. Expression of apoptosis-related proteins like Bcl-2, Bax, cytochrome c, caspase-3 was analyzed by western blotting, Bax/Bcl-2 ratio is represented by a bar graph (FIG. 2-C). Data are presented as mean ±SD (***P<0.001 vs. control, #P<0.05, ##P<0.005 vs. STZ)."}, "INS-1 cells [2]": {"test_system": "INS-1 cells", "assay": "Intracellular ROS generation in STZ-treated cells, flow cytometry with DCFH-DA and immunofluorescence", "method": "For intracellular ROS analyses after administering PLAG, cells were incubated with 2 μM of DCFH-DA (2′,7′-dichlorodihydrofluorescein diacetate, Invitrogen, Carlsbad, CA, USA) for 30 min at 37 ° C. The analysis was performed using a BD FACS Verse flow cytometer (BD Biosciences) (FIGS. 4A and 4B), and expression of reactive oxygen species (ROS) was observed by immunofluorescence assay (FIG. 4C). We further examined cell apoptosis in cells co-treated with three types of ROS inhibitor (Apocynin, MitoTEMPO, NAC) to examine the association of intracellular ROS generation with pancreatic beta cell apoptosis. […] Apocynin (NADPH oxidase inhibitor), MitoTEMPO (mitochondrial ROS inhibitor), and N-acetyl-L-cysteine (NAC, an overall ROS inhibitor) were used as the ROS inhibitor. Data are presented as mean ±SD(* P<0.05, ** P<0.005, *** P <0.001 vs control, #P<0.05, ## P<0.005 vs STZ).\n(§2) After treatment with PLAG and PLH(1-palmitoyl-2-linoleoyl-3-hydroxyl-rac-glycerol), apoptosis, intracellular ROS generation and glucose uptake were analyzed by flow cytometry (FIG. 7-B to 7-E). In addition, expression of GLUT2 in membrane fractions was analyzed by Western blotting (FIG.7-F). Data are presented as mean ±SD. ***P<0.001 vs. control, #P<0.05, ##P<0.005 vs. STZ. N.S.: No significance.\n(§3) Cells were collected by trypsinization and washed with ice-cold PBS. For cell apoptosis analyses, INS-1 cells were incubated with annexin V (BD Biosciences, Franklin Lakes, N.J., USA) for 10 min at room temperature, and stained with 7-AAD (BD Biosciences). For intracellular reactive oxygen species (ROS) analyses, cells were incubated with 2 μM of DCFH-DA (2′,7′-dichlorodihydrofluorescein diacetate, Invitrogen, Carlsbad, Calif., USA) for 30 min at 37° C. The analysis was performed using a BD FACS Verse flow cytometer (BD Biosciences)."}, "INS-1 cells [3]": {"test_system": "INS-1 cells", "assay": "STZ-induced cell apoptosis in INS-1 cells, flow cytometry with annexin-V and 7-AAD", "details": "STZ-treated cells", "method": "The effect of PLAG on STZ-induced cell apoptosis was analyzed using flow cytometry using annexin-V and 7-AAD dye (FIGS. 2A and 2B). Cells were collected by trypsinization and washed with PBS. For cell apoptosis analyses, INS-1 cells were incubated with annexin V (BD Biosciences, Franklin Lakes, N.J., USA) for 10 min at room temperature, and stained with 7-AAD (BD Biosciences). Analysis was performed using a BD FACSVerse flow cytometer (BD Biosciences). The annexin-V and 7-AAD dyes are dyes that label apoptosis, one kind of cell death.\nas §2\n(§4) INS-1 rat insulinoma pancreas beta cells were cultured in RPMI-1640 medium (Welgene, Gyeongsangbuk-do, Republic of Korea) containing 10% fetal bovine serum (Tissue Culture Biologicals, Long Beach, Calif., USA), 50 μM β-mercaptoethanol, 100 units/mL penicillin, and 100 μg/mL streptomycin (Antibiotic-Antimycotic Solution, Welgene). The cells were grown in a humidified atmosphere with 5% CO2 at 37° C. Chemicals and reagents\nas §3"}, "RAC1": {"test_system": "RAC1", "assay": "RAC1 expression in membrane fractions of STZ-treated cells by western blotting", "details": "time course", "method": "as §1, with “STZ). […]” for “STZ).”"}, "INS-1 cells [4]": {"test_system": "INS-1 cells", "assay": "High glucose (HG)-induced cell apoptosis in INS-1 cells, flow cytometry", "details": "pre-treated with 50 or 100 μg/mL of PLAG for 1 h, then 30 mM HG for 48 h", "method": "Effect of PLAG on pancreatic beta cell protection was investigated after HG-treatment. HG-induced cell apoptosis was analyzed using flow cytometry. INS-1 cells were pre-treated with 50 or 100 μg/mL of PLAG for lh, and then treated with 30 mM of HG for 48h. When INS-1 cells were maintained in a high glucose conditions, there was a significant increase in cell apoptosis compared to control cells.\nas §4\nPLAG was obtained from Enzychem Lifesciences (Seoul, Republic of Korea). D-glucose was purchased from Sigma-Aldrich (St. Louis, Mo., USA). PLAG was dissolved in ethanol and the final working concentration was 0.1% (v/v). D-glucose was dissolved in cell culture medium.\nCells were collected by trypsinization and washed with ice-cold PBS. For cell apoptosis analyses, INS-1 cells were incubated with annexin V (BD Biosciences, Franklin Lakes, N.J., USA) for 10 min at room temperature, and stained with 7-AAD (BD Biosciences). […]"}, "INS-1 cells [5]": {"test_system": "INS-1 cells", "assay": "High glucose (HG)-induced intracellular ROS generation in INS-1 cells, flow cytometry with DCFH-DA", "details": "pre-treated with 50 or 100 μg/mL of PLAG for 1 h, then 30 mM HG for 48 h", "method": "Intracellular ROS generation also analyzed by flow cytometry using DCFH-DA dye. ROS generation was determined by analyzing changes in fluorescence intensity. INS-1 cells were pre-treated with 50 or 100 μg/mL of PLAG for 1 h, and then treated with 30 mM of HG for 48h. […] PLAG promotes GLUT2 endocytosis in HG-treated INS-1 cells (FIG. 10)\nas §4, §3"}}, "note": "“Also recorded” adds a separate entry of the source.", "data": [{"smiles": "CCCCC/C=C\\C/C=C\\CCCCCCCC(=O)OC(COC(C)=O)COC(=O)CCCCCCCCCCCCCCC", "note": "(racemic) [PLAG, 1-palmitoyl-2-linoleoyl-3-acetyl-rac-glycerol]", "values": [{"measurement": "expression of anti-apoptotic protein BCL-2", "setting": "[1]; decreased by STZ", "result": "recovered by PLAG"}, {"measurement": "expression of apoptosis-related proteins BAX, cytochrome c, and caspase-3", "setting": "[1]; increased by STZ", "result": "attenuated by PLAG addition"}, {"measurement": "decrease of ROS generation, PLAG vs PLH", "setting": "INS-1 cells [2]; Example 8", "result": "more effective than PLH"}, {"measurement": "intracellular ROS (dose dependence)", "setting": "INS-1 cells [2]; flow cytometry", "result": "dose-dependently decreased"}, {"measurement": "intracellular ROS (time course)", "setting": "INS-1 cells [2]; flow cytometry and immunofluorescence", "result": "attenuated"}, {"measurement": "apoptosis", "setting": "INS-1 cells [3]; 10 μg/mL of PLAG", "result": "~50", "unit": "%"}, {"measurement": "apoptosis", "setting": "INS-1 cells [3]; 100 μg/mL PLAG", "result": "~30", "unit": "%"}, {"measurement": "decrease of cell apoptosis, PLAG vs PLH", "setting": "INS-1 cells [3]; Example 8", "result": "more effective than PLH"}, {"measurement": "expression of RAC1 in membrane fractions", "setting": "RAC1", "result": "attenuated after a slight increase in 15 min"}, {"measurement": "HG-induced cell apoptosis", "setting": "INS-1 cells [4]", "result": "a decreased rate of apoptosis was observed; also recorded: dose-dependently decreased"}, {"measurement": "HG-induced intracellular ROS generation", "setting": "INS-1 cells [5]", "result": "dose-dependently decreased"}]}]}
